Experiments:
Format in all cases: in vivo, C57BL/6J mice
aP2 = test: Liver mRNA by semi-quantitative RT-PCR: aP2; conditions: HFD-fed mice, oral gavage once daily 4 weeks, AnK 10, 20, 40, Feno 250, Metf 300 mg/kg/day, vs HF group
Description: (§1) The 4-week old male C57BL/6J mice (total amount n=63) were obtained from the National Laboratory Animal Center (Taipei, Taiwan). After acclimatization for one week, all of the mice were randomly assigned into a control (CON) group and a high-fat diet (HFD) group. […] After HFD feeding for 8 weeks, the HFD group was randomly subdivided into six groups (n=9 per group) receiving different treatments and fed on HFD. […] The HF+AnK1, HF+AnK2, and HF+AnK3 groups are collectively termed AnK-treated HFD groups in the following examples. The CON mice were administered vehicle. All treatments were administered via oral gavage once daily. After administration for 4 weeks, all mice were fasted 12 hours, and blood was collected from the retro-orbital sinus under ether anesthesia. […]
(§2) Total RNA from liver tissue of mice was isolated with a Trizol Reagent (Molecular Research Center, Inc., Cincinnati, Ohio, USA) according to the manufacturer's instructions. The integrity of the extracted total RNA was examined by 2% agarose gel electrophoresis, and the RNA concentration was determined by the ultraviolet (UV) light absorbency at 260 nm and 280 nm (Spectrophotometer U-2800A, Hitachi). […]
(§3) Levels of mRNA of target genes were quantified by semi-quantitative reverse transcription polymerase chain reaction (RT-PCR). […] PCR products were analyzed by 2% agarose gel and stained with ethidium bromide.

[1] = system: high-fat diet-fed C57BL/6J mouse; test: Hepatic lipids in HFD-fed mice
Experimental: Animal studies were performed and approved under the guidelines of the Institutional Animal Care and Use Committee in Taiwan (12 Mar. 2015). […] After acclimatization for one week, all of the mice were randomly assigned into a control (CON) group and a high-fat diet (HFD) group. For the following 12 weeks, the CON group (n=9) received a control diet or a low-fat diet (Diet 12450B, Research Diets, Inc., New Brunswick, N.J., USA), while the HFD group (n=54) received a high-fat diet (Diet 12451, Research Diets, New Brunswick, N.J., USA). […] After HFD feeding for 8 weeks, the HFD group was randomly subdivided into six groups (n=9 per group) receiving different treatments and fed on HFD. […] The HF+AnK1, HF+AnK2, and HF+AnK3 groups are collectively termed AnK-treated HFD groups in the following examples. The CON mice were administered vehicle. All treatments were administered via oral gavage once daily. After administration for 4 weeks, all mice were fasted 12 hours, and blood was collected from the retro-orbital sinus under ether anesthesia. At the end of the experiment, the mice were sacrificed via carbon dioxide inhalation. Liver, adipose tissue, and skeletal muscle were collected and immediately stored at −80° C. for target gene analysis.

apoCIII = test: Liver mRNA by semi-quantitative RT-PCR: apoCIII; conditions: HFD-fed mice, oral gavage once daily 4 weeks, AnK 10, 20, 40, Feno 250, Metf 300 mg/kg/day, vs HF group
Description: as §1, §2, §3

PPARα = test: Western blotting of hepatic PPARα; conditions: liver; HFD-fed mice; AnK 10, 20, 40, Feno 250, Metf 300 mg/kg/day; vs HF group
Description: as §1, with “anesthesia. At the end of the experiment, the mice were sacrificed via carbon dioxide inhalation.” for “anesthesia.”
About 0.1 g of liver tissue, skeletal muscle, or adipose tissue was used for the homogenate samples. […] The protein concentration in supernatant was determined with a BCA protein assay kit (Thermo Scientific, Rockford, Ill., USA). […] Immunoreactive bands were detected with ECL reagent kit (GE Healthcare BioSciences, Buckinghamshire, UK). The intensity of Western blot signals was analyzed using AlphaEase FC software (Alpha Innotech Corporation, Randburg, South Africa). […]

[2] = HF + AnK1: AnK 10 mg/kg/day oral gavage 4 weeks
[3] = HF + AnK2: AnK 20 mg/kg/day oral gavage 4 weeks
[4] = HF + AnK3: AnK 40 mg/kg/day oral gavage 4 weeks
[5] = HF + Metf: metformin 300 mg/kg/day oral gavage 4 weeks

SMILES	mRNA levels of aP2 (aP2)	Liver lipids total lipid [1, 2] [mg/g]	Liver lipids triacylglycerol [1, 2] [µmol/g]	Liver lipids total lipid [1, 3] [mg/g]	Liver lipids triacylglycerol [1, 3] [µmol/g]	Liver lipids total lipid [1, 4] [mg/g]	Liver lipids triacylglycerol [1, 4] [µmol/g]	mRNA levels of apoCIII (apoCIII)	PPARα expression levels (protein) (PPARα)	Liver lipids total lipid [1, 5] [mg/g]	Liver lipids triacylglycerol [1, 5] [µmol/g]
C=C(CC[C@@H](C)[C@H]1CC[C@H]2C3=C(C(=O)C[C@]12C)[C@@]1(C)CC[C@@H](O)[C@](C)(O)[C@@H]1C[C@@H]3O)C(C)C(=O)O (stereo partly drawn) [AnK, 3α,4β,7β-trihydroxy-4α-methylergosta-8,24(28)-dien-11-on-25S-26-oic acid]	significantly decreased	73.1 ± 4.7	56.3 ± 4.2	66.0 ± 4.8	45.7 ± 3.9	64.5 ± 5.2	45.2 ± 4.6	significantly decreased	significantly increased	–	–
CN(C)C(=N)N=C(N)N [Metf, metformin, reference compound]	significantly decreased	–	–	–	–	–	–	significantly decreased	significantly increased	65.3 ± 4.9	45.4 ± 4.2

Source: US10124012B2, “Method for treatment of hyperglycemia and hyperlipidemia” (priority 2016, dated 2018)
